Reference: PubChem BioAssay AID1845210 (Molecular Pharmacology Branch, DTP, NCI, 2023)

Test system: NCI-H226 complex tumor spheroids, viability
Experiment: Anticancer human tumor NCI-H226 cell line growth inhibition;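 note: spheroids exposed to compound for 7 days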;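 for viability, T/C: 100% = DMSO vehicle control viability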
Settings: for viability, T/C: stronger effect = lower value
Summary of the method: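 Complex tumor spheroids combined malignant cells with endothelial cells and mesenchymal stem cells. DNA-damaging drugs and DNA repair inhibitors were tested alone and in combination, at half-log dilutions down from clinical Cmax (top 10 microM if Cmax unknown), 0.25% DMSO final.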

[1] = curve of first compound, second compound 30 pM
[2] = curve of first compound, second compound 94.9 pM
[3] = curve of first compound, second compound 0.0003 µM
[4] = curve of first compound, second compound 0.000949 µM
[5] = curve of first compound, second compound 0.003 µM

COc1ccc([C@@H](O)c2cc(-c3ncnc4cc(N5CCOCC5)ccc34)c(F)cc2Cl)nn1 + COc1cc2c(cc1O)CCNC21CSC2c3c(OC(C)=O)c(C)c4c(c3C(COC1=O)N1C(O)C3Cc5cc(C)c(OC)c(O)c5C(C21)N3C)OCO4
IC50 [1]: 6370 nM
IC50 [2]: 4020 nM
IC50 [3]: 4260 nM
IC50 [4]: 756 nM
IC50 [5]: < 31.6 nM
viability, T/C (second compound 30 pM, first compound 0.0316 µM): 115%
viability, T/C (second compound 30 pM, first compound 0.1 µM): 108%
viability, T/C (second compound 30 pM, first compound 0.316 µM): 81.2%
viability, T/C (second compound 30 pM, first compound 1 µM): 80.5%
viability, T/C (second compound 30 pM, first compound 3.16 µM): 58%
viability, T/C (second compound 30 pM, first compound 10 µM): 43.6%
viability, T/C (second compound 94.9 pM, first compound 0.0316 µM): 99.8%
viability, T/C (second compound 94.9 pM, first compound 0.1 µM): 105%
viability, T/C (second compound 94.9 pM, first compound 0.316 µM): 106%
viability, T/C (second compound 94.9 pM, first compound 1 µM): 76.5%
viability, T/C (second compound 94.9 pM, first compound 3.16 µM): 54.6%
viability, T/C (second compound 94.9 pM, first compound 10 µM): 43.5%
viability, T/C (second compound 0.0003 µM, first compound 0.0316 µM): 126%
viability, T/C (second compound 0.0003 µM, first compound 0.1 µM): 130%
viability, T/C (second compound 0.0003 µM, first compound 0.316 µM): 122%
viability, T/C (second compound 0.0003 µM, first compound 1 µM): 95.4%
viability, T/C (second compound 0.0003 µM, first compound 3.16 µM): 54.7%
viability, T/C (second compound 0.0003 µM, first compound 10 µM): 37.5%
viability, T/C (second compound 0.000949 µM, first compound 0.0316 µM): 107%
viability, T/C (second compound 0.000949 µM, first compound 0.1 µM): 112%
viability, T/C (second compound 0.000949 µM, first compound 0.316 µM): 93.6%
viability, T/C (second compound 0.000949 µM, first compound 1 µM): 36.4%
viability, T/C (second compound 0.000949 µM, first compound 3.16 µM): 0.51%
viability, T/C (second compound 0.000949 µM, first compound 10 µM): 0.24%
viability, T/C (second compound 0.003 µM, first compound 0.0316 µM): 1.01%
viability, T/C (second compound 0.003 µM, first compound 0.1 µM): 0.79%
viability, T/C (second compound 0.003 µM, first compound 0.316 µM): 0.98%
viability, T/C (second compound 0.003 µM, first compound 1 µM): 0.69%
viability, T/C (second compound 0.003 µM, first compound 3.16 µM): 0.74%
viability, T/C (second compound 0.003 µM, first compound 10 µM): 1.08%

CC[C@@]1(O)C(=O)OCc2c1cc1n(c2=O)Cc2cc3c(CN(C)C)c(O)ccc3nc2-1
viability, T/C (compound 0.003 µM): 94.5% [middle of 10 runs]
viability, T/C (compound 0.03 µM): 86% [middle of 10 runs]
viability, T/C (compound 0.0949 µM): 86.1% [middle of 10 runs]
viability, T/C (compound 0.3 µM): 66.8% [middle of 10 runs]
IC50 (compound alone, run of 12/02/2019): > 300 nM
IC50 (compound alone, run of 12/12/2019): > 300 nM

CNCc1ccc(-c2cc(-c3nc(-c4ccc(S(=O)(=O)C(C)C)cc4)cnc3N)on2)cc1 + COc1cc2c(cc1O)CCNC21CSC2c3c(OC(C)=O)c(C)c4c(c3C(COC1=O)N1C(O)C3Cc5cc(C)c(OC)c(O)c5C(C21)N3C)OCO4
IC50 [1]: 1610 nM
IC50 [2]: 1480 nM
IC50 [3]: 1500 nM
IC50 [4]: 1020 nM
IC50 [5]: < 9.49 nM
viability, T/C (second compound 30 pM, first compound 0.00949 µM): 89.5%
viability, T/C (second compound 30 pM, first compound 0.03 µM): 96.1%
viability, T/C (second compound 30 pM, first compound 0.0949 µM): 103%
viability, T/C (second compound 30 pM, first compound 0.3 µM): 123%
viability, T/C (second compound 30 pM, first compound 0.949 µM): 91.9%
viability, T/C (second compound 30 pM, first compound 3 µM): 0.9%
viability, T/C (second compound 94.9 pM, first compound 0.00949 µM): 85.9%
viability, T/C (second compound 94.9 pM, first compound 0.03 µM): 99.4%
viability, T/C (second compound 94.9 pM, first compound 0.0949 µM): 105%
viability, T/C (second compound 94.9 pM, first compound 0.3 µM): 127%
viability, T/C (second compound 94.9 pM, first compound 0.949 µM): 80.9%
viability, T/C (second compound 94.9 pM, first compound 3 µM): 0.45%
viability, T/C (second compound 0.0003 µM, first compound 0.00949 µM): 89.7%
viability, T/C (second compound 0.0003 µM, first compound 0.03 µM): 105%
viability, T/C (second compound 0.0003 µM, first compound 0.0949 µM): 106%
viability, T/C (second compound 0.0003 µM, first compound 0.3 µM): 138%
viability, T/C (second compound 0.0003 µM, first compound 0.949 µM): 82.9%
viability, T/C (second compound 0.0003 µM, first compound 3 µM): 0.44%
viability, T/C (second compound 0.000949 µM, first compound 0.00949 µM): 88.1%
viability, T/C (second compound 0.000949 µM, first compound 0.03 µM): 94.1%
viability, T/C (second compound 0.000949 µM, first compound 0.0949 µM): 124%
viability, T/C (second compound 0.000949 µM, first compound 0.3 µM): 91.4%
viability, T/C (second compound 0.000949 µM, first compound 0.949 µM): 53.9%
viability, T/C (second compound 0.000949 µM, first compound 3 µM): 0.33%
viability, T/C (second compound 0.003 µM, first compound 0.00949 µM): 2.12%
viability, T/C (second compound 0.003 µM, first compound 0.03 µM): 1.88%
viability, T/C (second compound 0.003 µM, first compound 0.0949 µM): 3%
viability, T/C (second compound 0.003 µM, first compound 0.3 µM): 1.46%
viability, T/C (second compound 0.003 µM, first compound 0.949 µM): 0.37%
viability, T/C (second compound 0.003 µM, first compound 3 µM): 0.31%

CC1COCCN1c1cc(-c2ccnn2C)c2ccnc(-c3ccn[nH]3)c2n1 (stereo unspecified) + Cn1nnc2c(C(N)=O)ncn2c1=O
IC50 (curve of first compound, second compound 1 µM): 1890 nM
IC50 (curve of first compound, second compound 3.16 µM): 1750 nM
IC50 (curve of first compound, second compound 10 µM): 2010 nM
IC50 (curve of first compound, second compound 31.6 µM): 2020 nM
IC50 (curve of first compound, second compound 100 µM): 2410 nM
viability, T/C (second compound 1 µM, first compound 0.0316 µM): 88.1%
viability, T/C (second compound 1 µM, first compound 0.1 µM): 86.8%
viability, T/C (second compound 1 µM, first compound 0.316 µM): 79.3%
viability, T/C (second compound 1 µM, first compound 1 µM): 59.6%
viability, T/C (second compound 1 µM, first compound 3.16 µM): 42.4%
viability, T/C (second compound 1 µM, first compound 10 µM): 35.9%
viability, T/C (second compound 3.16 µM, first compound 0.0316 µM): 98.8%
viability, T/C (second compound 3.16 µM, first compound 0.1 µM): 86.1%
viability, T/C (second compound 3.16 µM, first compound 0.316 µM): 78.4%
viability, T/C (second compound 3.16 µM, first compound 1 µM): 50.8%
viability, T/C (second compound 3.16 µM, first compound 3.16 µM): 47.8%
viability, T/C (second compound 3.16 µM, first compound 10 µM): 34.9%
viability, T/C (second compound 10 µM, first compound 0.0316 µM): 105%
viability, T/C (second compound 10 µM, first compound 0.1 µM): 88.6%
viability, T/C (second compound 10 µM, first compound 0.316 µM): 73%
viability, T/C (second compound 10 µM, first compound 1 µM): 59.3%
viability, T/C (second compound 10 µM, first compound 3.16 µM): 43.1%
viability, T/C (second compound 10 µM, first compound 10 µM): 36.1%
viability, T/C (second compound 31.6 µM, first compound 0.0316 µM): 90.2%
viability, T/C (second compound 31.6 µM, first compound 0.1 µM): 91.5%
viability, T/C (second compound 31.6 µM, first compound 0.316 µM): 74.7%
viability, T/C (second compound 31.6 µM, first compound 1 µM): 58.3%
viability, T/C (second compound 31.6 µM, first compound 3.16 µM): 46.1%
viability, T/C (second compound 31.6 µM, first compound 10 µM): 37.9%
viability, T/C (second compound 100 µM, first compound 0.0316 µM): 116%
viability, T/C (second compound 100 µM, first compound 0.1 µM): 107%
viability, T/C (second compound 100 µM, first compound 0.316 µM): 92.9%
viability, T/C (second compound 100 µM, first compound 1 µM): 61.5%
viability, T/C (second compound 100 µM, first compound 3.16 µM): 46.2%
viability, T/C (second compound 100 µM, first compound 10 µM): 42.5%
